Molecules are shown by their SMILES. *1 amine or outer side, *2 acyl side, *3 side chain or, on linkers, in order; H or OH if unused. Where a SMILES comes first, the peptide text is derived from it. Bridges are numbered along the chain shown (N, C = ends). [ ]: non-standard residue; d: D form. The star is where a group is joined. Trp(1-CH2CO) = O=C([C@H](Cc1cn(CC(=O)[*:3])c2ccccc12)N[*:1])[*:2]; Dodecyloxycarbonyl = CCCCCCCCCCCCOC(=O)*; X4 = CCc1cccc(CC)c1-c1nc(*)c2ccccc2n1; Fmoc = O=C(OCC1c2ccccc2-c2ccccc21)*; Oleoyl = CCCCCCCC/C=C\CCCCCCCC(=O)*; X2 = COc1ccc2nc(-c3ccccc3)nc(*)c2c1; Hyp = O=C(O)[C@@H]1C[C@@H](O)CN1; X1 = COC(=O)c1ccc2cnc(*)nc2c1; NMeNle = CCCC[C@H](NC)C(=O)O; X6 = CCCCCCCCCCCCCCCCOC(=O)*; NMeA = CN[C@@H](C)C(=O)O; X3 = Brc1ccc2ncnc(*)c2c1; Dab = NCC[C@H](N)C(=O)O; Dap = NC[C@H](N)C(=O)O; X5 = CC(C)(C)SC(=O)*

The test deals with T1, PD-1/PD-L1 (Homo sapiens, UniProt Q9NZQ7).
T1 construct: TVMV protease site linker (C); made in house; host or cells: HEK293T cells
T1 sequence (Q9NZQ7 18-239): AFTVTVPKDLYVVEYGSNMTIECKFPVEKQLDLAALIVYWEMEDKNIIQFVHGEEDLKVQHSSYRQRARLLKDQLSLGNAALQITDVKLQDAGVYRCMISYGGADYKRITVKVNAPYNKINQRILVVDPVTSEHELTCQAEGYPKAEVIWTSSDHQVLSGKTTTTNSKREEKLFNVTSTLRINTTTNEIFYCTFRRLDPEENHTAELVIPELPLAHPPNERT
Put plainly: PD-1/PD-L1 Homogenous Time-Resolved Fluorescence (HTRF) binding assay. The settings on record: PD-L1-His 10 nM, PD-1-Ig 20 nM; soluble extracellular domains. From the text: Methods for Testing the Ability of Macrocyclic Peptides to Compete for the Binding of Pd-1 to Pd-L1 Using Homogenous Time-Resolved Fluorescence (Htrf) Binding Assays
The ability of the compounds of formula (I) to bind to PD-L1 was investigated using a PD-1/PD-L1 Homogenous Time-Resolved Fluorescence (HTRF) binding assay.
The interaction of PD-1 and PD-L1 can be assessed using soluble, purified preparations of the extracellular domains of the two proteins. The PD-1 and PD-L1 protein extracellular domains were expressed as fusion proteins with detection tags, for PD-1, the tag was the Fc portion of Immunoglobulin (PD-1-Ig) and for PD-L1 it was the 6 histidine motif (PD-L1-His). All binding studies were performed in an HTRF assay buffer consisting of dPBS supplemented with 0.1% […] bovine serum albumin and 0.05% (v/v) Tween-20. For the h/PD-L1-His binding assay, inhibitors were pre-incubated with PD-L1-His (10 nM final) for 15 m in 4 μl of assay buffer, followed by addition of PD-1-Ig (20 nM final) in 1 μl of assay buffer and further incubation for 15 m. HTRF detection was achieved using europium crypate-labeled anti-Ig (1 nM final) and allophycocyanin (APC) labeled anti-His (20 nM final). Antibodies were diluted in HTRF detection buffer and 5 μl was dispensed on top of the binding reaction. The reaction mixture was allowed to equilibrate for 30 minutes and the resulting signal (665 nm/620 nm ratio) was obtained using an EnVision fluorometer. Additional binding assays were established between the human proteins PD-1-Ig/PD-L2-His (20 & 5 nM, respectively) and CD80-His/PD-L1-Ig (100 & 10 nM, respectively).
Recombinant Proteins: Human PD-1 (25-167) with a C-terminal human Fc domain of immunoglobulin G (Ig) epitope tag [hPD-1(25-167)-3S-IG] and human PD-L1 (18-239) with a C-terminal His epitope tag [hPD-L1(18-239)-TVMV-His] were expressed in HEK293T cells and purified sequentially by Protein A affinity chromatography and size exclusion chromatography. Human PD-L2-His and CD80-His was obtained through commercial sources.
Table 1 lists the IC50 values for representative examples of this disclosure measured in the PD-1/PD-L1 Homogenous Time-Resolved Fluorescence (HTRF) binding assay.
A general note: TR-FRET usually uses a lanthanide donor and a delayed reading to cut background.
The term IC50 denotes the concentration that inhibits the measured activity by half. A lower IC50 goes with higher potency. `CCCCCCCCCCCCOC(=O)NC[C@@H]1NC(=O)[C@@H]2CCCN2C(=O)[C@H](CC(N)=O)NC(=O)[C@H](C)N(C)C(=O)[C@H](Cc2ccc(O)cc2)NC(=O)CSC[C@@H](C(=O)NCC(N)=O)NC(=O)[C@H](CC(C)C)NC(=O)[C@H](CCCC)N(C)C(=O)[C@H](CCCC)N(C)C(=O)[C@@H]2Cc3cn(c4ccccc34)CC(=O)NCC[C@H](NC(=O)[C@H](Cc3c[nH]c4ccccc34)NC(=O)[C@@H]3C[C@@H](O)CN3C(=O)[C@H](CC(C)C)NC1=O)C(=O)N2` [Example 1001] ({CH2CO}-Y[NMeA]NP[Dap](Dodecyloxycarbonyl)L[Hyp]W[Dab][Trp(1-CH2CO)][NMeNle][NMeNle]LCG-NH2; lactam 9-10; thioether N-14) returned an IC50 of 280 nM. This counts as sub-micromolar. Consider `CCCCCCCCCCCCCCCCOC(=O)NC[C@@H]1NC(=O)[C@@H]2CCCN2C(=O)[C@H](CC(N)=O)NC(=O)[C@H](C)N(C)C(=O)[C@H](Cc2ccc(O)cc2)NC(=O)CSC[C@@H](C(=O)NCC(N)=O)NC(=O)[C@H](CC(C)C)NC(=O)[C@H](CCCC)N(C)C(=O)[C@H](CCCC)N(C)C(=O)[C@@H]2Cc3cn(c4ccccc34)CC(=O)NCC[C@H](NC(=O)[C@H](Cc3c[nH]c4ccccc34)NC(=O)[C@@H]3C[C@@H](O)CN3C(=O)[C@H](CC(C)C)NC1=O)C(=O)N2` [Example 1002] ({CH2CO}-Y[NMeA]NP[Dap](X6)L[Hyp]W[Dab][Trp(1-CH2CO)][NMeNle][NMeNle]LCG-NH2; lactam 9-10; thioether N-14), for which the IC50 stood at 2200 nM. As for `CCCCCCCC/C=C\CCCCCCCC(=O)NC[C@@H]1NC(=O)[C@@H]2CCCN2C(=O)[C@H](CC(N)=O)NC(=O)[C@H](C)N(C)C(=O)[C@H](Cc2ccc(O)cc2)NC(=O)CSC[C@@H](C(=O)NCC(N)=O)NC(=O)[C@H](CC(C)C)NC(=O)[C@H](CCCC)N(C)C(=O)[C@H](CCCC)N(C)C(=O)[C@@H]2Cc3cn(c4ccccc34)CC(=O)NCC[C@H](NC(=O)[C@H](Cc3c[nH]c4ccccc34)NC(=O)[C@@H]3C[C@@H](O)CN3C(=O)[C@H](CC(C)C)NC1=O)C(=O)N2` [Example 1003] ({CH2CO}-Y[NMeA]NP[Dap](Oleoyl)L[Hyp]W[Dab][Trp(1-CH2CO)][NMeNle][NMeNle]LCG-NH2; lactam 9-10; thioether N-14), the figure is above 10000 nM; as for `CCCC[C@H]1C(=O)N(C)[C@@H](CCCC)C(=O)N[C@@H](CC(C)C)C(=O)N[C@H](C(=O)NCC(N)=O)CSCC(=O)N[C@@H](Cc2ccc(O)cc2)C(=O)N(C)[C@@H](C)C(=O)N[C@@H](CC(N)=O)C(=O)N2CCC[C@H]2C(=O)N[C@@H](CNC(=O)OCC2c3ccccc3-c3ccccc32)C(=O)N[C@@H](CC(C)C)C(=O)N2C[C@H](O)C[C@H]2C(=O)N[C@@H](Cc2c[nH]c3ccccc23)C(=O)N[C@H]2CCNC(=O)Cn3cc(c4ccccc43)C[C@H](NC2=O)C(=O)N1C` [Example 1004] ({CH2CO}-Y[NMeA]NP[Dap](Fmoc)L[Hyp]W[Dab][Trp(1-CH2CO)][NMeNle][NMeNle]LCG-NH2; lactam 9-10; thioether N-14), 16 nM. As for `CCCC[C@H]1C(=O)N(C)[C@@H](CCCC)C(=O)N[C@@H](CC(C)C)C(=O)N[C@H](C(=O)NCC(N)=O)CSCC(=O)N[C@@H](Cc2ccc(O)cc2)C(=O)N(C)[C@@H](C)C(=O)N[C@@H](CC(N)=O)C(=O)N2CCC[C@H]2C(=O)N[C@@H](CNC(=O)SC(C)(C)C)C(=O)N[C@@H](CC(C)C)C(=O)N2C[C@H](O)C[C@H]2C(=O)N[C@@H](Cc2c[nH]c3ccccc23)C(=O)N[C@H]2CCNC(=O)Cn3cc(c4ccccc43)C[C@H](NC2=O)C(=O)N1C` [Example 1005] ({CH2CO}-Y[NMeA]NP[Dap](X5)L[Hyp]W[Dab][Trp(1-CH2CO)][NMeNle][NMeNle]LCG-NH2; lactam 9-10; thioether N-14), the figure is 0.58 nM. Molecule `CCCC[C@H]1C(=O)N(C)[C@@H](CCCC)C(=O)N[C@@H](CC(C)C)C(=O)N[C@H](C(=O)NCC(N)=O)CSCC(=O)N[C@@H](Cc2ccc(O)cc2)C(=O)N(C)[C@@H](C)C(=O)N[C@@H](CC(N)=O)C(=O)N2CCC[C@H]2C(=O)N[C@@H](CNc2nc(Cl)nc3ccc(-c4ccccc4C)cc23)C(=O)N[C@@H](CC(C)C)C(=O)N2C[C@H](O)C[C@H]2C(=O)N[C@@H](Cc2c[nH]c3ccccc23)C(=O)N[C@H]2CCCC(=O)Cn3cc(c4ccccc43)C[C@H](NC2=O)C(=O)N1C` [Example 1007] had a half-inhibitory concentration (IC50) of 1200 nM. This IC50 is about 2100-fold higher than that of the molecule before. Turning to `CCCC[C@H]1C(=O)N(C)[C@@H](CCCC)C(=O)N[C@@H](CC(C)C)C(=O)N[C@H](C(=O)NCC(N)=O)CSCC(=O)N[C@@H](Cc2ccc(O)cc2)C(=O)N(C)[C@@H](C)C(=O)N[C@@H](CC(N)=O)C(=O)N2CCC[C@H]2C(=O)N[C@@H](CNc2nc(-c3c(CC)cccc3CC)nc3ccccc23)C(=O)N[C@@H](CC(C)C)C(=O)N2C[C@H](O)C[C@H]2C(=O)N[C@@H](Cc2c[nH]c3ccccc23)C(=O)N[C@H]2CCNC(=O)Cn3cc(c4ccccc43)C[C@H](NC2=O)C(=O)N1C` [Example 1013] ({CH2CO}-Y[NMeA]NP[Dap](X4)L[Hyp]W[Dab][Trp(1-CH2CO)][NMeNle][NMeNle]LCG-NH2; lactam 9-10; thioether N-14), the IC50 came to 41 nM. The molecule `CCCC[C@H]1C(=O)N(C)[C@@H](CCCC)C(=O)N[C@@H](CC(C)C)C(=O)N[C@H](C(=O)NCC(N)=O)CSCC(=O)N[C@@H](Cc2ccc(O)cc2)C(=O)N(C)[C@@H](C)C(=O)N[C@@H](CC(N)=O)C(=O)N2CCC[C@H]2C(=O)N[C@@H](CNc2nc(-c3ccccc3)nc3ccc(OC)cc23)C(=O)N[C@@H](CC(C)C)C(=O)N2C[C@H](O)C[C@H]2C(=O)N[C@@H](Cc2c[nH]c3ccccc23)C(=O)N[C@H]2CCNC(=O)Cn3cc(c4ccccc43)C[C@H](NC2=O)C(=O)N1C` [Example 1014] ({CH2CO}-Y[NMeA]NP[Dap](X2)L[Hyp]W[Dab][Trp(1-CH2CO)][NMeNle][NMeNle]LCG-NH2; lactam 9-10; thioether N-14) returned an IC50 of 49 nM. The IC50 values of the last two molecules are within 1.5-fold of each other. As for `CCCC[C@H]1C(=O)N(C)[C@@H](CCCC)C(=O)N[C@@H](CC(C)C)C(=O)N[C@H](C(=O)NCC(N)=O)CSCC(=O)N[C@@H](Cc2ccc(O)cc2)C(=O)N(C)[C@@H](C)C(=O)N[C@@H](CC(N)=O)C(=O)N2CCC[C@H]2C(=O)N[C@@H](CNc2ncnc3ccc(Br)cc23)C(=O)N[C@@H](CC(C)C)C(=O)N2C[C@H](O)C[C@H]2C(=O)N[C@@H](Cc2c[nH]c3ccccc23)C(=O)N[C@H]2CCNC(=O)Cn3cc(c4ccccc43)C[C@H](NC2=O)C(=O)N1C` [Example 1015] ({CH2CO}-Y[NMeA]NP[Dap](X3)L[Hyp]W[Dab][Trp(1-CH2CO)][NMeNle][NMeNle]LCG-NH2; lactam 9-10; thioether N-14), the figure is 97 nM. As for `CCCC[C@H]1C(=O)N(C)[C@@H](CCCC)C(=O)N[C@@H](CC(C)C)C(=O)N[C@H](C(=O)NCC(N)=O)CSCC(=O)N[C@@H](Cc2ccc(O)cc2)C(=O)N(C)[C@@H](C)C(=O)N[C@@H](CC(N)=O)C(=O)N2CCC[C@H]2C(=O)N[C@@H](CNc2ncc3ccc(C(=O)OC)cc3n2)C(=O)N[C@@H](CC(C)C)C(=O)N2C[C@H](O)C[C@H]2C(=O)N[C@@H](Cc2c[nH]c3ccccc23)C(=O)N[C@H]2CCNC(=O)Cn3cc(c4ccccc43)C[C@H](NC2=O)C(=O)N1C` [Example 1016] ({CH2CO}-Y[NMeA]NP[Dap](X1)L[Hyp]W[Dab][Trp(1-CH2CO)][NMeNle][NMeNle]LCG-NH2; lactam 9-10; thioether N-14), the figure is 120 nM.
